From ChEMBL document CHEMBL1157160, “Antioxidant and cytotoxic activities of canadine: biological effects and structural aspects” (Bioorg Med Chem, 2008)
Converted amounts (≈) assume the structure as drawn.

Columns and labels:
Hepatocyte [1] = assay: Cytotoxicity against Sprague-Dawley rat primary hepatocytes after 24 hrs by MTT assay; assay type: cell-based
HepG2 [2] = assay: Cytotoxicity against human HepG2 cells after 24 hrs by MTT assay; assay type: functional, cell-based
HeLa [3] = assay: Cytotoxicity against human HeLa cells after 24 hrs by MTT assay; assay type: functional, cell-based
Hepatocyte [4] = assay: Cytotoxicity against rat primary hepatocytes at 300 ug/ml after 24 hrs by MTT assay; assay type: cell-based
HepG2 [5] = assay: Cytotoxicity against human HepG2 cells at 300 ug/ml after 24 hrs by MTT assay; assay type: functional, cell-based
HeLa [6] = assay: Cytotoxicity against human HeLa cells at 300 ug/ml after 24 hrs by MTT assay; assay type: functional, cell-based
Hepatocyte [7] = assay: Antioxidant effect in Sprague-Dawley rat primary hepatocytes assessed as decrease in tert-butyl hydroperoxide-induced malondialdehyde accumulation administered 50 ug/ml for 7 hrs followed by combined exposure of tert-butyl hydroperoxide and drug for 12 hrs; assay type: functional; set-up: scale not given: the % may be the effect or the level left
Hepatocyte [8] = assay: Antioxidant effect in Sprague-Dawley rat primary hepatocytes assessed as decrease in tert-butyl hydroperoxide-induced malondialdehyde accumulation administered 100 ug/ml for 7 hrs followed by combined exposure of tert-butyl hydroperoxide and drug for 12 hrs; assay type: functional; set-up: scale not given: the % may be the effect or the level left
Hepatocyte [9] = assay: Antioxidant effect in Sprague-Dawley rat primary hepatocytes assessed as prevention of tert-butyl hydroperoxide-induced reduction in glutathione content administered 50 ug/ml for 7 hrs followed by combined exposure of tert-butyl hydroperoxide and drug for 12 hrs; assay type: functional; set-up: scale not given: the % may be the effect or the level left
Hepatocyte [10] = assay: Antioxidant effect in Sprague-Dawley rat primary hepatocytes assessed as prevention of tert-butyl hydroperoxide-induced reduction in glutathione content administered 100 ug/ml for 7 hrs followed by combined exposure of tert-butyl hydroperoxide and drug for 12 hrs; assay type: functional; set-up: scale not given: the % may be the effect or the level left
[11] = Homo sapiens, HepG2, 24 h, read-out: IC50
[12] = Homo sapiens, HeLa, 24 h, read-out: IC50

c1ccc2c(c1)C[C@H]1NCCc3cc4c(c-2c31)OCO4 [ANONAINE]
IC50 (Hepatocyte [1]): 70.3 µg/mL (≈ 265 µM)
IC50 (HepG2 [2]; [11]): 33.5 µg/mL (≈ 126 µM)
IC50 (HeLa [3]; [12]): 24.8 µg/mL (≈ 93.5 µM)

COc1cc2c3cc1Oc1c(O)c(OC)cc4c1[C@H](Cc1ccc(OC)c(c1)-c1cc(ccc1O)C[C@H]3N(C)CC2)N(C)CC4 [ANTIOQUINE]
IC50 (Hepatocyte [1]): 4.06 µg/mL (≈ 6.67 µM)
IC50 (HepG2 [2]; [11]): 460 µg/mL (≈ 756 µM)
IC50 (HeLa [3]; [12]): 548 µg/mL (≈ 901 µM)

COc1ccc2c(c1OC)CN1CCc3cc4c(cc3[C@@H]1C2)OCO4 [CANADINE]
Activity (Hepatocyte [4]): Non-toxic
Activity (HepG2 [5]): Not toxic
Activity (HeLa [6]): Not toxic
Activity (Hepatocyte [7]): >80%
Activity (Hepatocyte [8]): >80%
Activity (Hepatocyte [9]): >95%
Activity (Hepatocyte [10]): >95%

COc1ccc2cc3[n+](cc2c1OC)CCc1cc2c(cc1-3)OCO2.[Cl-] [BERBERINE CHLORIDE]
IC50 (Hepatocyte [1]): 26.5 µg/mL
IC50 (HepG2 [2]; hepg2): 146 µg/mL
IC50 (HeLa [3]; hela): 138 µg/mL
